Strand notation (5' to 3'): a small letter for the sugar, then the base; units joined by * are phosphorothioate-linked, units joined directly phosphodiester-linked; [ ] holds rarer units or linkages, { } end groups; capitals alone tell only the bases. e = 2'-O-(2-methoxyethyl) (MOE); k = constrained ethyl (cEt); [5mC] = 5-methylcytosine; d = 2'-deoxy (DNA)
Key:
human APOE RNA [1] = assay: Activity in APOE C57BL/6NTac-Apoeem7250 knock-in mice, single ICV bolus, 20 weeks (Example 13); assay type: in vivo; settings: single ICV bolus 300 μg, 20 weeks post treatment, normalized to mouse Ppia
Experimental: Modified oligonucleotides described above were tested in the APOE C57BL/6NTac-Apoeem7250 knock-in mouse model described above.
APOE C57BL/6NTac-Apoeem7250 knock-in mice were divided into groups of 4 mice each. Each mouse received a single ICV bolus of 300 μg of modified oligonucleotide. A group of 2-4 mice received a single ICV bolus with PBS as a negative control.
Twenty weeks post treatment, mice were sacrificed and RNA was extracted from cortical brain tissue and spinal cord for quantitative real-time RT-PCR analysis of RNA expression of APOE using human primer probe set RTS3073 (described herein above). APOE RNA levels were normalized to mouse Ppia. Mouse Ppia was amplified using primer probe set m_cyclo24 (described herein above). Results are presented as percent human APOE RNA relative to the amount of human APOE RNA in PBS treated animals, (% control). Each experiment is identified in separate tables below.

human APOE RNA [2] = assay: Dose-dependent inhibition of human APOE RNA in HepG2 cells, electroporation, 50,000 cells per well, RT-PCR normalized to GAPDH (Example 4, Tables 8-10); assay type: cell-based; settings: HepG2, electroporation, 16-hour treatment
Method in brief: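 HepG2 cells, 50,000 per well, electroporated with modified oligonucleotide at various concentrations. APOE RNA quantified by RT-PCR with human primer probe set RTS3073, normalized to GAPDH. Values are percent APOE RNA relative to untreated control cells.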

Row | Substance | APOE RNA (% control) Cortex (human APOE RNA [1]) [% control] | APOE RNA (% control) Spinal Cord (human APOE RNA [1]) [% control] | APOE RNA (% UTC) (human APOE RNA [2]; 5 nM) | APOE RNA (% UTC) (human APOE RNA [2]; 13 nM) | APOE RNA (% UTC) (human APOE RNA [2]; 33 nM) | APOE RNA (% UTC) (human APOE RNA [2]; 82 nM) | APOE RNA (% UTC) (human APOE RNA [2]; 205 nM) | APOE RNA (% UTC) (human APOE RNA [2]; 512 nM) | APOE RNA (% UTC) (human APOE RNA [2]; 1,280 nM) | APOE RNA (% UTC) (human APOE RNA [2]; 3,200 nM) | APOE RNA (% UTC) (human APOE RNA [2]; 8,000 nM) | APOE RNA (% UTC) (human APOE RNA [2]; 20,000 nM) | IC50 (human APOE RNA [2]) [nM]
1 | 1757568 (eA*e[5mC]eTeTeG*dG*dT*dG*dA*dA*dT*d[5mC]*dT*dT*dT*kAkTeT*eA*eA; antisense) [Compound 1757568] | 73 | 58 | 86 | 87 | 104 | 96 | 93 | 63 | 47 | 31 | 21 | 19 | 1390
2 | 1757570 (eA*e[5mC]eTeTkG*dG*dT*dG*dA*dA*dT*d[5mC]*dT*dT*dT*kAkTeT*eA*eA; antisense) [Compound 1757570] | 64 | 48 | 154 |  |  | 151 | 62 | 26 | 42 | 22 | 18 | 18 | 580
3 | 1757581 (eT*eTeGeGkT*dG*dA*dA*dT*d[5mC]*dT*dT*dT*dA*dT*eTeAeA*eA*e[5mC]; antisense) [Compound 1757581] | 87 | 75 | 83 | 85 | 100 | 78 | 76 | 58 | 33 | 25 | 15 | 8 | 680
4 | 1757582 (eT*eTeGkGkT*dG*dA*dA*dT*d[5mC]*dT*dT*dT*dA*dT*eTeAeA*eA*e[5mC]; antisense) [Compound 1757582] | 62 | 44 | 87 | 107 | 72 | 92 | 70 | 64 | 29 | 12 | 37 | 9 | 710
5 | 1757585 (eT*eTeGkGkT*dG*dA*dA*dT*d[5mC]*dT*dT*dT*dA*dT*kTeAeA*eA*e[5mC]; antisense) [Compound 1757585] | 62 | 61 | 45 | 49 | 44 | 38 | 33 | 53 | 19 | 32 | 12 | 1 | 10
6 | 1757586 (eT*eTeGeGkT*dG*dA*dA*dT*d[5mC]*dT*dT*dT*dA*dT*kTkAeA*eA*e[5mC]; antisense) [Compound 1757586] | 88 | 83 | 202 | 246 | 52 | 157 | 129 | 34 | 27 | 20 | 19 |  | 500

From patent publication US20250353873A1, “COMPOUNDS AND METHODS FOR MODULATING APOE EXPRESSION” (Ionis Pharmaceuticals, Inc., priority 2024, published 2025)
